In PMC10061512 (ACS Omega, 2023):
Values joined by “and” are separate entries in the source; they are usually repeats but may differ in a detail not shown here. Identical values can stand only once.

Experiments:
amyloid β 1–42 peptide = amyloid β 1–42 peptide (Homo sapiens, UniProt P05067); assay: Aβ-42 self-aggregation inhibition assay; type: biochemical; conditions: read-out: inhibition of self-aggregation of Aβ1–42 monomers
[1] = PAMPA–BBB
eqBChE = eqBChE (Equus caballus, UniProt P81908); assay: BChE inhibition and enzyme kinetics, Ellman assay; type: biochemical, equine
Chain of eqBChE (P81908 whole entry): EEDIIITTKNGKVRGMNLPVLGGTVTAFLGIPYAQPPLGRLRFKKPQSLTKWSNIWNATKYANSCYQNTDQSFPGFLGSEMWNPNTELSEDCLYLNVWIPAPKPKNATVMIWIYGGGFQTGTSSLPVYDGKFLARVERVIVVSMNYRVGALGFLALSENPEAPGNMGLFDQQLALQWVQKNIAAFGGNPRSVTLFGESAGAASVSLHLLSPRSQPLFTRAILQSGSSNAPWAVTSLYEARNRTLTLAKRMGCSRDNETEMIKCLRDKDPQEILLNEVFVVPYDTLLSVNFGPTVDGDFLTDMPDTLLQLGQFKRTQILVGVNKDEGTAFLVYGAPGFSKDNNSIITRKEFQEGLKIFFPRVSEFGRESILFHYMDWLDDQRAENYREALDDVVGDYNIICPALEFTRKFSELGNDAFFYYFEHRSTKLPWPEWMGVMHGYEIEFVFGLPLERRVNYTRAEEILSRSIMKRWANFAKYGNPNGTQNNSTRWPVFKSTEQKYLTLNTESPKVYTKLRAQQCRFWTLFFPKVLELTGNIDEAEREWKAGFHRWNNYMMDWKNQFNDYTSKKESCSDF

hBACE-1 [2] = target: T1, hBACE-1 (Homo sapiens, UniProt P56817); assay: biochemical
T1 sequence (P56817 46-501): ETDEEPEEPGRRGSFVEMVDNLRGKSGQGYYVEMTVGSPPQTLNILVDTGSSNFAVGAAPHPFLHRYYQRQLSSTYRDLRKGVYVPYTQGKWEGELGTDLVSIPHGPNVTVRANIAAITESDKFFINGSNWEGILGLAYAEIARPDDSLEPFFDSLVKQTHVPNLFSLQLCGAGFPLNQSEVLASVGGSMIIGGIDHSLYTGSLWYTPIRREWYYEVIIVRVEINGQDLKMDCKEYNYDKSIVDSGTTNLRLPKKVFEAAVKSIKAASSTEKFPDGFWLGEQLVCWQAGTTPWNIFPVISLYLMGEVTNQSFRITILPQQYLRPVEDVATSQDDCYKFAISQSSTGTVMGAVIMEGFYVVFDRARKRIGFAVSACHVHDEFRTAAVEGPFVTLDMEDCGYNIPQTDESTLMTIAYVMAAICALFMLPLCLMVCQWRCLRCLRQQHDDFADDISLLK

EeAChE = EeAChE (Electrophorus electricus, UniProt O42275); assay: AChE inhibition and enzyme kinetics, Ellman assay; type: biochemical, electric eel; conditions: for IC50: IC50 (μM) ± SD EeAChE, Ellman assay
Chain of EeAChE (O42275 24-633): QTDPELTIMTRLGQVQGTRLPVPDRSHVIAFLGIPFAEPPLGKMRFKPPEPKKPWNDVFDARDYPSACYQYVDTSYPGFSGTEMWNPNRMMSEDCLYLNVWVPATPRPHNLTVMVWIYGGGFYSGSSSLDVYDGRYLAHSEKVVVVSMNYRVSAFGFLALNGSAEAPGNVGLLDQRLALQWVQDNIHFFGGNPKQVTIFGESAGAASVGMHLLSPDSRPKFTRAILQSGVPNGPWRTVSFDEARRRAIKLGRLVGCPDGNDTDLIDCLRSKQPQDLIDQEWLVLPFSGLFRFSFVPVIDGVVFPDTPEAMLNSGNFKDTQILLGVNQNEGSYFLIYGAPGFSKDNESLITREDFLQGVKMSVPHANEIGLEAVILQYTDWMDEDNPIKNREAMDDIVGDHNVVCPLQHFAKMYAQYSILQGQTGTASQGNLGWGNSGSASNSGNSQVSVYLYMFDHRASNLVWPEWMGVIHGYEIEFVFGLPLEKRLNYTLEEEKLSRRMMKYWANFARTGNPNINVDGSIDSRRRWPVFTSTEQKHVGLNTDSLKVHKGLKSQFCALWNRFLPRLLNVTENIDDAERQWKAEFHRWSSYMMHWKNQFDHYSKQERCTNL

hBACE-1 [3] = target: T1, hBACE-1; conditions: Lineweaver–Burk double-reciprocal plot
in vitro = conditions: pig, PAMPA, pH 7.4
[4] = Lineweaver–Burk double-reciprocal plot

Chain of amyloid β 1–42 peptide (P05067 672-713): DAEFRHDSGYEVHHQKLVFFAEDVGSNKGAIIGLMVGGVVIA

| Compound | IC50 (eqBChE) [µM] | IC50 (EeAChE) | IC50 (hBACE-1 [2]) [µM] | also measured |
| --- | --- | --- | --- | --- |
| COc1cc(Cn2cc(COc3ccc4ccc(=O)oc4c3C(C)=O)nn2)cc(OC)c1 [10b, 8-Acetyl-7-((1-(3,5-dimethoxybenzyl)-1H-1,2,3-triazol-4-yl)methoxy)-2H-chromen-2-one] | 3.26 ± 0.13 | 2.57 ± 0.31 µM | – | inhibition at 10 µM (amyloid β 1–42 peptide): 37%; prediction of CNS permeation [1]: CNS+; Ki (eqBChE): 3.5 µM; mode of inhibition, BChE (eqBChE; [4]): mixed type; Ki (hBACE-1 [2]): 7 µM; Ki (EeAChE): 0.27 µM; fold difference in AChE inhibition activity of 10b vs 19b (EeAChE; 10b vs 19b): 20 fold; mode of inhibition, AChE (EeAChE; [4]): noncompetitive; mode of inhibition, BACE-1 (hBACE-1 [3]): mixed type; Papp (in vitro): 5.68 ± 1.1 ×10⁻⁶ cm/s |
| COc1cc2c(C)cc(=O)oc2cc1OCc1cn(Cc2ccccc2C(F)(F)F)nn1 [16c, 6-Methoxy-4-methyl-7-((1-(2-(trifluoromethyl)benzyl)-1H-1,2,3-triazol-4-yl)methoxy)-2H-chromen-2-one] | 57.5 ± 1.42 | 141.7 ± 0.89 µM | 156.1 ± 1.42 | – |
| COc1cc2c(C)cc(=O)oc2cc1OCc1cn(Cc2ccccc2OC(F)(F)F)nn1 [16d, 6-Methoxy-4-methyl-7-((1-(2-(trifluoromethoxy)benzyl)-1H-1,2,3-triazol-4-yl)methoxy)-2H-chromen-2-one] | 141 ± 0.6 | 167 ± 2.45 µM | 167.6 ± 1.4 | – |
| COc1cccc(Cn2cc(COc3ccc4ccc(=O)oc4c3)nn2)c1 [19a, 7-((1-(3-Methoxybenzyl)-1H-1,2,3-triazol-4-yl)methoxy)-2H-chromen-2-one] | 2.8 ± 0.22 | 3.6 µM and 3.62 µM | 126 ± 3.92 | – |
| COc1cc(Cn2cc(COc3ccc4ccc(=O)oc4c3)nn2)cc(OC)c1 [19b, 7-((1-(3,5-Dimethoxybenzyl)-1H-1,2,3-triazol-4-yl)methoxy)-2H-chromen-2-one] | 63.2 ± 2.44 | 59.7 ± 0.62 µM | 132 ± 2.02 | – |
| O=c1ccc2ccc(OCc3cn(Cc4ccccc4C(F)(F)F)nn3)cc2o1 [19c, 7-((1-(2-(Trifluoromethyl)benzyl)-1H-1,2,3-triazol-4-yl)methoxy)-2H-chromen-2-one] | 77.3 ± 6.38 | 20.6 ± 0.95 µM | 17.7 ± 0.65 | – |
| O=c1ccc2ccc(OCc3cn(Cc4ccccc4OC(F)(F)F)nn3)cc2o1 [19d, 7-((1-(2-(Trifluoromethoxy)benzyl)-1H-1,2,3-triazol-4-yl)methoxy)-2H-chromen-2-one] | 97.2 ± 1.29 | 52.54 ± 0.4 µM | 172.8 ± 0.66 | – |
| O=c1cc(O)c2ccccc2o1 [compound 5, 4-hydroxycoumarin] | 167 ± 5.63 | 139 ± 1.85 µM | 169 ± 7.67 | – |
| Cc1cc(=O)oc2cc(O)c(O)cc12 [compound 11, 4-methyl-6,7-dihydroxycoumarin] | 148 ± 5.46 | 68.1 ± 4.05 µM | 105 ± 3.48 | – |
| COc1cc2c(C)cc(=O)oc2cc1O [compound 14, 7-Hydroxy-6-methoxy-4-methyl-2H-chromen-2-one] | 146 ± 4.91 | 89.1 ± 3.51 µM | 91.1 ± 2.41 | – |
| COc1cc(/C=C/C(=O)CC(=O)/C=C/c2ccc(O)c(OC)c2)ccc1O [curcumin, reference compound] | – | – | – | inhibition at 10 µM (amyloid β 1–42 peptide): 81% |
